Data taken from patent publication US20160050895A1, “TRANSGENIC NON-HUMAN ORGANISMS WITH NON-FUNCTIONAL TSPO GENES” (AUSTRALIAN NUCLEAR SCIENCE AND TECHNOLOGY ORGANIZATION, priority 2013, published 2016).

Biological target: TSPO (Mus musculus, UniProt P50637)
Assay: Radioligand membrane saturation binding with 3H-PK11195
Design: Snap-frozen tissues were sectioned at 20 μm in a cryostat; from tissue; host or cells: mouse organ sections (brain, retina/eye, heart, adrenal, kidney, testis, spleen), C57BL/6 background
Conditions: testicular and kidney tissue; TSPO+/- mice compared to TSPO+/+ mice
Procedure: Tissue samples were homogenised with T25 digital Ultra-Turrax homogenizer (Ika, Wilmington, N.C., USA) at speed setting 5 or 20000 rpm in approximately 45 mL of ice-cold TRIS buffer (pH 7.4), collected by centrifugation at 48000 g and the supernatant was then discarded. The procedure was then immediately repeated, this acts as an extra wash step to remove any soluble interfering substances to radioligand binding (Byland et al. 1993). Following the second centrifugation and removal ofsupernatant the samples were resuspended in approximately 50 volumes of ice-cold TRIS buffer (pH 7.4). Samples were aliquoted stored in −80° C. until required.
For TSPO knock-out mice studies, radioligand binding was performed using 3H-PK11195 racemate across a range of concentrations (FIG. 4). PK11195 is a TSPO specific probe. Total and non-specific binding was determined through 8 concentrations of 3H-PK11195 ranging from 0.56 nM to 20 nM. Non-specific binding was determined by the addition of 5 μM PK11195 to all concentrations of 3H-PK11195. […]
Organs were homogenised, washed twice in ice-cold 50 mM Tris-HCl (pH 7.4) by centrifugation at 48000×g, resuspended in 50 volumes of ice-cold 50 mM Tris-HCl, and protein concentration was determined using a BCA protein assay kit (Thermo Fisher Scientific). […] Non-specific binding was determined with 5 μM PK11195. […]

CC[C@@H](C)N(C)C(=O)c1cc2ccccc2c(-c2ccccc2Cl)n1 [[^3H]PK11195]
Specific binding using [3H]PK11195: approximately half the signal
